Experimental data from patent publication US20260167623A1 (NIKANG THERAPEUTICS, INC., priority 2022, published 2026).

Biological target: T1, CDK2 (Homo sapiens, UniProt P24941)
T1 construct: High-Throughput Measurement of Cellular Endogenous CDK2; endogenous in cells; host or cells: OVCAR3
Experiment: Inhibition of CDK2: phospho-Rb (S807/811) HTRF measurement in OVCAR3 cells, 24 h
Type: cell-based
Settings: 24 h compound treatment, read-out: pRB_OVCAR3_24h
Outline: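 IC50 came from a four-parameter fit of DMSO-normalized TR-FRET ratios (665/620 nm) reporting phospho-Rb S807/811. Lysates were taken from OVCAR3 cultures treated 24 h with compound (0.3 to 10,000 nM) and incubated 4 h at room temperature with the antibody pair.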

Structure (SMILES): Cn1nc(N2CCC(=O)NC2=O)c2ccc(C3CCN(CC4(C#N)CCN(c5cccc(S(=O)(=O)N6CCC(Nc7ncc(Cl)cn7)CC6)c5)CC4)CC3)cc21 [Example 164, 1-(3-((4-((5-chloropyrimidin-2-yl)amino)piperidin-1-yl)sulfonyl)phenyl)-4-((4-(3-(2,4-dioxotetrahydropyrimidin-1(2H)-yl)-1-methyl-1H-indazol-6-yl)piperidin-1-yl)methyl)piperidine-4-carbonitrile]
- IC50: > 2.5 µM

Structure (SMILES): Cn1nc(N2CCC(=O)NC2=O)c2ccc(N3CCC(CN4C5CCC4CN(c4cccc(S(=O)(=O)N6CCC(Nc7ncc(Cl)cn7)CC6)c4)C5)CC3)cc21 [Example 166, 1-(6-(4-((3-(3-((4-((5-chloropyrimidin-2-yl)amino)piperidin-1-yl)sulfonyl)phenyl)-3,8-diazabicyclo[3.2.1]octan-8-yl)methyl)piperidin-1-yl)-1-methyl-1H-indazol-3-yl)dihydropyrimidine-2,4(1H,3H)-dione]
- IC50: > 2.5 µM

Structure (SMILES): Cn1c(=O)n(C2CCC(=O)NC2=O)c2cc(C3CCN(CC4CCN(c5cccc(S(=O)(=O)N6CCC(Nc7ncc(C(F)(F)F)cn7)CC6)c5)CC4)CC3)ccc21 (centres unmarked) [Example 167, 3-(3-methyl-2-oxo-6-(1-((1-(3-((4-((5-(trifluoromethyl)pyrimidin-2-yl)amino)piperidin-1-yl)sulfonyl)phenyl)piperidin-4-yl)methyl)piperidin-4-yl)-2,3-dihydro-1H-benzo[d]imidazol-1-yl)piperidine-2,6-dione]
- IC50: 0.5 to 2.5 µM

Structure (SMILES): Cn1nc(N2CCC(=O)NC2=O)c2ccc(C3CCN(Cc4cc(S(=O)(=O)N5CCC(Nc6ncc(OC(F)F)cn6)CC5)ccc4C#N)CC3)cc21 [Example 169, 4-((4-((5-(difluoromethoxy)pyrimidin-2-yl)amino)piperidin-1-yl)sulfonyl)-2-((4-(3-(2,4-dioxotetrahydropyrimidin-1(2H)-yl)-1-methyl-1H-indazol-6-yl)piperidin-1-yl)methyl)benzonitrile]
- IC50: 0.1 to 0.5 µM

Structure (SMILES): Cn1nc(N2CCC(=O)NC2=O)c2ccc(C3CCN(CC4CCN(c5cc(C(F)(F)F)cc(S(=O)(=O)N6CCC(Nc7ncc(Cl)cn7)CC6)c5)CC4)CC3)cc21 [Example 170, 1-(6-(1-((1-(3-((4-((5-chloropyrimidin-2-yl)amino)piperidin-1-yl)sulfonyl)-5-(trifluoromethyl)phenyl)piperidin-4-yl)methyl)piperidin-4-yl)-1-methyl-1H-indazol-3-yl)dihydropyrimidine-2,4(1H,3H)-dione]
- IC50: 0.5 to 2.5 µM

Structure (SMILES): O=C1CCC(n2c(=O)n(C3CCN(CC4CCN(c5cccc(S(=O)(=O)N6CCC(Nc7ncc(C(F)(F)F)cn7)CC6)c5)CC4)CC3)c3ccccc32)C(=O)N1 (centres unmarked) [Example 171, 3-(2-oxo-3-(1-((1-(3-((4-((5-(trifluoromethyl)pyrimidin-2-yl)amino)piperidin-1-yl)sulfonyl)phenyl)piperidin-4-yl)methyl)piperidin-4-yl)-2,3-dihydro-1H-benzo[d]imidazol-1-yl)piperidine-2,6-dione]
- IC50: 0.1 to 0.5 µM

Structure (SMILES): Cn1nc(N2CCC(=O)NC2=O)c2ccc(C3CCN(CC4CCN(c5cccc(S(=O)(=O)N6CC7(CC(Nc8ncc(C(F)(F)F)cn8)C7)C6)c5)CC4)CC3)cc21 [Example 172, 1-(1-methyl-6-(1-((1-(3-((6-((5-(trifluoromethyl)pyrimidin-2-yl)amino)-2-azaspiro[3.3]heptan-2-yl)sulfonyl)phenyl)piperidin\-4-yl)methyl)piperidin-4-yl)-1H-indazol-3-yl)dihydropyrimidine-2,4(1H,3H)-dione]
- IC50: > 2.5 µM

Structure (SMILES): Cn1c(=O)n(C2CCC(=O)NC2=O)c2cccc(C3CCN(CC4CCN(c5cc(C(F)(F)F)cc(S(=O)(=O)N6CCC(Nc7ncc(Cl)cn7)CC6)c5)CC4)CC3)c21 (centres unmarked) [Example 173, 3-(4-(1-((1-(3-((4-((5-chloropyrimidin-2-yl)amino)piperidin-1-yl)sulfonyl)-5-(trifluoromethyl)phenyl)piperidin-4-yl)methyl)piperidin-4-yl)-3-methyl-2-oxo-2,3-dihydro-1H-benzo[d]imidazol-1-yl)piperidine-2,6-dione]
- IC50: 0.5 to 2.5 µM

Structure (SMILES): Cn1c(=O)n(C2CCC(=O)NC2=O)c2cccc(C3CCN(CC4CCN(c5cc(C(F)(F)F)cc(S(=O)(=O)N6CCC(Nc7ncc(OC(F)F)cn7)CC6)c5)CC4)CC3)c21 (centres unmarked) [Example 176, 3-(4-(1-((1-(3-((4-((5-(difluoromethoxy)pyrimidin-2-yl)amino)piperidin-1-yl)sulfonyl)-5-(trifluoromethyl)phenyl)piperidin-4-yl)methyl)piperidin-4-yl)-3-methyl-2-oxo-2,3-dihydro-1H-benzo[d]imidazol-1-yl)piperidine-2,6-dione]
- IC50: 0.5 to 2.5 µM

Structure (SMILES): Cn1nc(N2CCC(=O)NC2=O)c2ccc(C3CCN(CC4CCN(c5cccc(S(=O)(=O)N6CC(Nc7ncc(C(F)(F)F)cn7)C6)c5)CC4)CC3)cc21 [Example 178, 1-(1-methyl-6-(1-((1-(3-((3-((5-(trifluoromethyl)pyrimidin-2-yl)amino)azetidin-1-yl)sulfonyl)phenyl)piperidin-4-yl)methyl)piperidin-4-yl)-1H-indazol-3-yl)dihydropyrimidine-2,4(1H,3H)-dione]
- IC50: > 2.5 µM

Structure (SMILES): Cn1nc(N2CCC(=O)NC2=O)c2ccc(CN3CCN(c4cccc(S(=O)(=O)N5CCC(Nc6ncc(C(F)(F)F)cn6)CC5)c4)CC3)cc21 [Example 179, 1-(1-methyl-6-((4-(3-((4-((5-(trifluoromethyl)pyrimidin-2-yl)amino)piperidin-1-yl)sulfonyl)phenyl)piperazin-1-yl)methyl)-1H-indazol-3-yl)dihydropyrimidine-2,4(1H,3H)-dione]
- IC50: 0.5 to 2.5 µM

Structure (SMILES): O=C1CCN(c2cccc(C3CCN(CC4CCN(c5cccc(S(=O)(=O)N6CCC(Nc7ncc(Cl)cn7)CC6)c5)CC4)CC3)c2)C(=O)N1 [Example 182, 1-(3-(1-((1-(3-((4-((5-chloropyrimidin-2-yl)amino)piperidin-1-yl)sulfonyl)phenyl)piperidin-4-yl)methyl)piperidin-4-yl)phenyl) dihydropyrimidine-2,4(1H,3H)-dione]
- IC50: 0.1 to 0.5 µM

Structure (SMILES): Cn1nc(N2CCC(=O)NC2=O)c2ccc(C3CCN(Cc4ccnc(S(=O)(=O)N5CCC(Nc6ncc(C(F)(F)F)cn6)CC5)c4)CC3)cc21 [Example 183, 1-(1-methyl-6-(1-((2-((4-((5-(trifluoromethyl)pyrimidin-2-yl)amino)piperidin-1-yl)sulfonyl)pyridin-4-yl)methyl)piperidin-4-yl)-1H-indazol-3-yl)dihydropyrimidine-2,4(1H,3H)-dione]
- IC50: 0.5 to 2.5 µM

Structure (SMILES): N#Cc1ccc(S(=O)(=O)N2CCC(Nc3ncc(Cl)cn3)CC2)cc1N1CCC(CN2CCN(c3cc4c(cc3F)C(=O)N(C3CCC(=O)NC3=O)C4=O)CC2)CC1 (centres unmarked) [Example 185, 4-((4-((5-chloropyrimidin-2-yl)amino)piperidin-1-yl)sulfonyl)-2-(4-((4-(2-(2,6-dioxopiperidin-3-yl)-6-fluoro-1,3-dioxoisoindolin-5-yl)piperazin-1-yl)methyl)piperidin-1-yl)benzonitrile]
- IC50: 0.5 to 2.5 µM

Structure (SMILES): O=C1CCC(n2c(=O)n(CC3CCN(CC4CCN(c5cccc(S(=O)(=O)N6CCC(Nc7ncc(C(F)(F)F)cn7)CC6)c5)CC4)CC3)c3ccccc32)C(=O)N1 (centres unmarked) [Example 186, 3-(2-oxo-3-((1-((1-(3-((4-((5-(trifluoromethyl)pyrimidin-2-yl)amino)piperidin-1-yl)sulfonyl)phenyl)piperidin-4-yl)methyl)piperidin-4-yl)methyl)-2,3-dihydro-1H-benzo[d]imidazol-1-yl)piperidine-2,6-dione]
- IC50: 0.001 to 0.1 µM

Structure (SMILES): Cn1nc(N2CCC(=O)NC2=O)c2ccc(C3CCN(CC4CCN(c5cccc(S(=O)(=O)N6CCC(Nc7ncc(Cl)cn7)CC6)c5F)CC4)CC3)cc21 [Example 187, 1-(6-(1-((1-(3-((4-((5-chloropyrimidin-2-yl)amino)piperidin-1-yl)sulfonyl)-2-fluorophenyl)piperidin-4-yl)methyl)piperidin-4-yl)-1-methyl-1H-indazol-3-yl)dihydropyrimidine-2,4(1H,3H)-dione]
- IC50: 0.1 to 0.5 µM

Structure (SMILES): Cn1nc(N2CCC(=O)NC2=O)c2ccc(C3CCN(CC4CCN(c5ccc(F)c(S(=O)(=O)N6CCC(Nc7ncc(Cl)cn7)CC6)c5)CC4)CC3)cc21 [Example 189, 1-(6-(1-((1-(3-((4-((5-chloropyrimidin-2-yl)amino)piperidin-1-yl)sulfonyl)-4-fluorophenyl)piperidin-4-yl)methyl)piperidin-4-yl)-1-methyl-1H-indazol-3-yl)dihydropyrimidine-2,4(1H,3H)-dione]
- IC50: > 2.5 µM

Structure (SMILES): Cn1nc(N2CCC(=O)NC2=O)c2ccc(N3CCC(CN4CC5CCC(C4)N5c4cccc(S(=O)(=O)N5CCC(Nc6ncc(Cl)cn6)CC5)c4)CC3)cc21 [Example 191, 1-(6-(4-((8-(3-((4-((5-chloropyrimidin-2-yl)amino)piperidin-1-yl)sulfonyl)phenyl)-3,8-diazabicyclo[3.2.1]octan-3-yl)methyl)piperidin-1-yl)-1-methyl-1H-indazol-3-yl)dihydropyrimidine-2,4(1H,3H)-dione]
- IC50: > 2.5 µM

Structure (SMILES): Cn1nc(N2CCC(=O)NC2=O)c2ccc(C3CCN(CC4CCN(c5cccc(S(=O)(=O)N6CCC(Nc7ncc(F)cn7)CC6)c5)CC4)CC3)cc21 [Example 193, 1-(6-(1-((1-(3-((4-((5-fluoropyrimidin-2-yl)amino)piperidin-1-yl)sulfonyl)phenyl)piperidin-4-yl)methyl)piperidin-4-yl)-1-methyl-1H-indazol-3-yl)dihydropyrimidine-2,4(1H,3H)-dione]
- IC50: 0.5 to 2.5 µM

Structure (SMILES): O=C1CCN(c2cncc3c(C4CCN(CC5CCN(c6cccc(S(=O)(=O)N7CCC(Nc8ncc(Cl)cn8)CC7)c6)CC5)CC4)cccc23)C(=O)N1 [Example 194, 1-(8-(1-((1-(3-((4-((5-chloropyrimidin-2-yl)amino)piperidin-1-yl)sulfonyl)phenyl)piperidin-4-yl)methyl)piperidin-4-yl)isoquinolin-4-yl)dihydropyrimidine-2,4(1H,3H)-dione]
- IC50: 0.1 to 0.5 µM
